From patent US20030091533A1, “Regulation of mononuclear phagocyte stimulation” (priority 2001, published 2003)

Experiments:
LPS-stimulated PBM [1] = test: Intracellular oxidative burst, DCFH oxidation assay, PBM; type: cell-based, human
Method: Intracellular oxidative capacity was assessed essentially as described by Bass et al., J. Immunol., 130:1910-1917 (1983) (incorporated herein by reference) as described infra.
Cells (0.2×10^6) were preincubated for 24 hour with IL-9 or IL-4 (20 ng/ml) in the presence of IFN-γ (200 U/ml) before stimulation for 20 hour with LPS (1 μg/ml). The intracellular oxidative capacity was measured through the DCFH oxidation assay as describe herein. FIG. 3 depicts the effect of IFN-γ on the inhibition mediated by IL-9 and IL-4 on the oxidative burst in LPS-stimulated PBM (A) and AM (B).
Table 1. Specific blockade of the IL-9 inhibitory effect on oxidative burst in LPS-15 stimulated PBM and AM by anti-hIL-9R mAb. Cells (0.2×10^6) were preincubated with neutralizing mAb against hIL-9R (AH9R7, 10 μg/ml), or with control mIgG2b (10 μg/ml), 1 hour before incubation with IL-9 (20 ng/ml) for 24 hour without removing mAb, and stimulated by LPS (1 μg/ml) for 20 h. Intracellular oxidative capacity was evaluated by the DCFH oxidation assay. Data are means±SEM obtained from three experiments, triplicate conditions being performed in each experiment. *P<0.001 compared with cells preincubated with IL-9 (with or without control mIgG2b).
Cells (0.2×10^6) were preincubated with neutralizing mAb, either against TGF-β1 (30 μg/ml) or against IL-10Rβ (30 μg/ml) or with control mIgG1 (30 μg/ml), 2 hour before incubation with IL-9 (20 ng/ml) for 24 hour without removing the mAb, and stimulated with LPS (1 μg/ml) for 20 h. Intracellular oxidative capacity was evaluated by the DCFH oxidation assay.
Intracellular oxidative capacity was assessed as described by Bass et al., (Bass et al., J. Immunol. 130:1910-1917 (1983)). Briefly, the PBM and AM samples were distributed in 96-well plates with flat bottoms (Falcon) to provide 0.2×10^6cells/well. The cells were preincubated for 24 hour at 37° C., 5% CO2 with cytokines (200 u/ml for IFN-y, 20 ng/ml for IL-9 and 20 ng/ml; for IL-4) in cRPMI before being stimulated for 20 hours with LPS (1 μg/ml) without removing the cytokines. At the end of incubation with cytokines and/or LPS, cells were loaded for 15 min with 15 μM DCFH-DA in cRPMI which, after passive penetration into cells, is hydrolyzed into nonfluorescent polar DCFH and trapped inside the cells. DCFH is then oxidized into highly fluorescent DCF according to the intracellular amount of hydrogen peroxide (H2O2) produced by the respiratory burst. After three washings with phosphate-buffered saline (PBS, pH 7.4), cells were lysed in 0.1% v/v Triton X100 (Sigma) in PBS, and fluorescence was quantified in a computerized microplate spectrofluorimeter (Packard Instruments, Downers Grove, Ill., USA) at 485 nm excitation/530 nm emission wavelengths. DCF concentrations were deduced from a standard curve of known concentrations of fluorescent DCF (ranging from 0.08 to 10 μM in lysis buffer) Results were corrected for total protein concentration determined in cell lysates by the bicinchoninic acid-based method (Pierce, Rockford, Ill., USA), and were expressed as nmoles DCF/mg cell protein.

PMA-stimulated PBM = test: Extracellular O2- release, SOD-inhibitable reduction of ferricytochrome c; type: cell-based, human; details: PMA as stimulus, preliminary experiments
Method: Extracellular release of O2-derived radicals was evaluated by the SOD-inhibitable reduction of ferricytochrome c, as previously described (Pick, Methods in Enzymology, 132:407-421 (1986)) as described infra.
Extracellular release of O2-derived radicals was evaluated by the SOD-inhibitable reduction of ferricytochrome c, as previously described (Pick, Methods in Enzymology, 132:407-421 (1986)). Briefly, after incubation with IL-9 and IL-4 (20 ng/ml) for 1 hour, 4 hour 24 hour and 96 hour, cells were washed three times in Hank's balanced salt solution without phenol red (HBSS) to remove the phenol red-containing medium and incubated at 37° C. with HBSS containing 160 μM ferricytochrome c (plus 300 IU/ml SOD as control for each condition), and concomittantly with 100 ng/ml PMA when indicated. Optical density (OD) at 550 nm was then recorded in a plate spectrometer (Titertek Multiscan Plus MKII, Labsystems, Finland) after 60 min. The released amount of superoxide anion (O2^−) was deduced from the absorbance values at 550 nm (after subtraction of control values with SOD) using the cytochrome c extinction coefficient of 21×10^3 M^−1 cm^−1 (See Massey, Biochim Biophys Acta, 34: 255(1959)). Results were expressed as nmoles O2^− per 10^6 cells per hour (FIG. 1).

LPS-stimulated PBM [2] = test: Intracellular oxidative burst, DCFH oxidation assay, PBM; type: cell-based, human; details: PMA as stimulus, preliminary experiments
ERK½ = ERK½ MAP kinase phosphorylation immunoblot in PBM; type: cell-based, human; details: pretreatment before LPS 1 μg/ml; IL-9 20 ng/ml 24 hour; PD98059 1 hour
Method: PBM, isolated as described infra, were treated with 100 !M PD98059 (or with the same volume of DMSO as control) 1 hour before preincubation for 24 hour with medium or IL-9 (20 ng/ml). For the phosphoERK immunoblot assay (A), PBM were then stimulated by LPS (1 μg/ml) for the indicated periods of time (5 min to 20 hours) as compared to unstimulated cells (med), and processed for the detection of phosphorylated and total ERK½ as described in infra. For the oxidative burst (B), PBM were stimulated by LPS (1 μg/ml) for 20 hour and their oxidative capacity was evaluated through DCFH oxidation The results are presented in FIG. 7.
PBM were preincubated for 24 hour with medium alone (med) or IL-9, IL-4 or TGF-β1 (20 ng/ml), and stimulated by LPS (1 μg/ml) for the indicated periods of time (30 to 240 min). […]
PBM (1×10^6) were preincubated for 24 hour with medium alone or with cytokines (IL-9, IL-4 or TGF-β1 at 20 ng/ml) and stimulated from 5 min to 20 hour by 1 μg/ml LPS. […] Cell extracts (10 μg, as determined by the bicinchoninic acid-based assay) were subjected to SDS-12%PAGE, and electrotransferred onto a nitrocellulose membrane (Amersham) immunoblotted to detect and compare phosphorylated (threonine^202/tyrosine^204 residues) and total ERK½, using specific antibodies and enhanced chemiluminescence (New England Biolabs). […]

surface of PBM and AM = test: IL-9 binding assay with hIL-9-mIgG3 chimeric molecule by FACS; design: species or system human; details: revealed by GAM3-FITC, compared with control
Method: To assess the IL-9 binding by PBM and AM, cells (0.2×10^6) were incubated with hIL-9-nIlgG3 chimeric protein and binding was assayed with GAM3-FITC. FIG. 4 is representative of five and three experiments for respectively IL-9R expression and IL-9 binding.
Binding of IL-9 to the surface of PBM and AM was assessed by incubating these cells (0.2×10^6) at 4° C. for 1 hour with hIL-9-mIgG3 chimeric molecule (10% COS cell supernatant). […] Cells incubated with mIgG3 before GAM3-FITC served as the negative control. FACS analysis of the cell-associated fluorescence was then performed as for the assessment of IL-9R expression.
Binding of IL-9 to the surface of PBM and AM was assessed by incubating these cells (0.2×10^6) at 4° C. for 1 hour with hIL-9-mIgG3 chimeric molecule (10%, v/v, COS cell supernatant). […] Cells incubated with mIgG3 before GAM3-FITC or only with GAM3-FITC served as negative controls. FACS analysis of the cell-associated fluorescence was then performed as for the assessment of IL-9R expression.

TGF-β1: monocyte/macrophage deactivating factor, 20 ng/ml
Oxidative burst (nmoles DCF/mg protein) (LPS-stimulated PBM [1]; Table 3, PBM, mAb 30 μg/ml 2 hour before IL-9 20 ng/ml 24 hour, LPS 1 μg/ml 20 h, means±SD, Medium 10.3 ± 0.2): 10.2 ± 0.5 nmoles DCF/mg protein
LPS-stimulated oxidative burst in PBM (LPS-stimulated PBM [1]; preincubation 24 hour with cytokine 20 ng/ml, then LPS 1 μg/ml 20 hour, without IFN-γ): 10.2±0.5 nmoles DCF/mg protein

CCCCCCCCCCCCCC(=O)O[C@@H]1[C@@H](C)[C@@]2(O)[C@@H](C=C(CO)C[C@]3(O)C(=O)C(C)=C[C@@H]23)[C@@H]2C(C)(C)[C@]12OC(C)=O [PMA, phorbol myristate acetate, reference compound]
cytochrome c reduction by PBM (PMA-stimulated PBM): strongly stimulated
DCFH oxidation by PBM (LPS-stimulated PBM [2]): only a minor effect

COc1cccc(-c2cc(=O)c3ccccc3o2)c1N [PD98059, reference compound]
effect on LPS-stimulated ROI production (oxidative burst) in monocytes (LPS-stimulated PBM [1]; PD98059 1 hour before preincubation, LPS 20 hour, DCFH oxidation): completely suppressed
LPS-induced ERK½ phosphorylation in PBM (ERK½): prevented

IL-9-mIgG3: human IL-9 fused to hinge, CH2 and CH3 domains of murine IgG3 heavy chain, COS cell supernatant
binding of IL-9 on the surface of AM (surface of PBM and AM): significant binding
binding of IL-9 on the surface of PBM (surface of PBM and AM): significant binding
